One series is described as follows: Cytotoxicity, alamarBlue. To be noted: mouse, RAW 264.7 macrophage cells, read-out: CC50^72 h cytotoxicity (macrophage / mammalian cells). In kind it is cell-based. Here is the method: Leishmania amazonensis axenic amastigotes (100 μL, 2×10^6 cells/mL) were added to 96-multiwell plates containing 100 μL of amastigote culture medium with an appropriate compound dilution series. 0.1% DMSO (no drug) served as a positive control (100%), and 5 μM amphotericin B served as a negative growth control (0%). Only internal wells were used to minimize edge effects from evaporation. Axenic amastigotes were incubated at 32° C. with a compound/drug for 72 h prior to measurement. Similarly, the cytotoxicity of each compound was determined against RAW 264.7 cells and HepG2 cell lines, following 72 h incubation at 37° C. (promastigotes at 26° C.).
10% alamarBlue® (Thermo Fisher Scientific) was used to measure the growth of both parasite and mammalian cells. Conversion from a blue oxidized state to a pink reduced state was assessed visually at 6 hr. The fluorescence signal was measured with a BioTek Synergy H1 plate reader (530 nm excitation, 570 nm emission). For bioluminescence assays using L. amazonensisluc, relative luminescence units (RLU) were measured using Britelite Plus (PerkinElmer, USA). Luminescence produced by this luciferase reaction is proportional to the amount of luciferase-expressing, viable L. amazonensisluc. Following five-minute incubation at room temperature, the luminescence was measured with a BioTek Synergy H1 plate reader. […]
For orientation: The colour change of resazurin is a common sign of viable cells or microbes.

The subject of series [1] is blood-stage P. falciparum (3D7 strain). Kind of series: Malaria SYBR green I fluorescence (MSF) assay. In kind it is cell-based, Plasmodium falciparum. The procedure: For other parasites, L. donovani, strain MHOM/SD/62/1S-C12D, was grown as previously described. Plasmodium falciparum parasites of the 3D7 strain were cultured in RPMI 1640 medium supplemented with 37.5 mM HEPES, 10 mM D-glucose, 2 mM L-glutamine, 100 μM hypoxanthine, 25 μg/mL gentamicin, 4% (v/v) human serum and 0.25% (v/v) Albumax II, at a 2% haematocrit in an atmosphere of 1% 02, 3% CO2 and 96% N2. Staging and parasitemia of the in vitro culture were assessed by light microscopy of Giemsa-stained thin blood smears.
Compounds were tested against the blood-stage Trypanosoma brucei (48 hr endpoint) and intra-erythrocytic asexual stages Plasmodium falciparum (3D7) using CellTiter-Glo® luminescent and Malaria SYBR green I fluorescence (MSF) assays, respectively. Similar methodology will be used for future experiments.
MMV676477 was tested against several other parasites: the axenic amastigotes of Leishmania donovani and Leishmania tarentolae, blood-stage Plasmodium falciparum, and Trypanosoma brucei. The compound's activity was measured using alamarBlue®, Malaria SYBR green I fluorescence (MSF) and CellTiter-Glo® luminescent assays. […] In addition, MMV676477 has also been recently reported as having potent activity against Neospora caninum, Cryptosporidium parvum, Toxoplasma gondii, and Entamoeba histolytica.

In series [2] the target is purified L. tarentolae tubulin (Leishmania tarentolae, UniProt A0A640KCM0+A0A640KQN0). Kind of series: Chemical cross-linking competition with SW223022 probe. In kind it is binding. To be noted: 100-fold excess of competitor.
Series [3] deals with L. amazonensis promastigotes and amastigotes. Put plainly: Microscopic analysis of cell division. In kind it is cell-based, Leishmania amazonensis. To be noted: 48 h at EC50^72 h. The procedure:
Promastigotes or amastigotes were treated with the indicated compound concentrations and allowed to adhere to poly-L-lysine coated plates. All cells were fixed with 4% paraformaldehyde and permeabilized/blocked with 0.01% Triton X-100 and 2% BSA in PBS. Promastigotes and amastigotes were incubated with mouse anti-gp46 or anti-p8, respectively at 1:50 or 1:1000 and rat anti-alpha-tubulin antibody at 1:1000. Samples were then probed with A568 anti-mouse and […] secondary antibodies (Molecular Probes). DNA was labeled with Hoescht. Samples were visualized on a Zeiss LSM 880 Inverted confocal Airyscan microscope at 63×; full Z-thicknesses through parasites were obtained. […] For microscopic analysis of mitotic arrest, at least 200 parasites were analyzed per condition per experiment after 48 hrs incubation at compounds' EC50, and the average plus standard error for three experiments was calculated. Representative images were selected from the maximal intensity projections and linearly processed in Adobe Photoshop CS6.
The molecular target of MMV676477 was investigated.

Series [4] relates to intracellular L. amazonensis amastigotes. Put plainly: Intramacrophage bioluminescence assay with luciferase-expressing L. amazonensis. In kind it is cell-based, Leishmania amazonensis. To be noted: Leishmania amazonensis, RAW264.7, 72 h, read-out: EC50^72 h against intracellular L. amazonensis amastigotes. The procedure:
Intracellular EC50s were estimated with L. amazonensisluc parasites. Briefly, RAW 264.7 cells or BM primary Mϕs were starved overnight, then infected with metacyclic promastigotes at a Multiplicity of Infection (MOI) of 15 and incubated for another 24 h at 37° C. The plates containing infected RAW 264.7 cells/BM primary M4s were washed five times with serum-free DMEM. Serially diluted compounds were added, and plates were incubated at 37° C. for 72 hrs. Bioluminescence signal was measured as described above.
RAW 264.7 cells were used to perform a bioluminescence assay with transgenic luciferase-expressing L. amazonensis (FIG. 1C).

Entries after “also recorded” stand apart in the source; their conditions may differ.

One may read the EC50 as the concentration giving half of the maximal effect. Consider `CCc1c(C)nc(-n2nc(C)cc2NC(=O)c2ccccc2SC)[nH]c1=O` [MMV676477, N-(1-(5-Ethyl-4-methyl-6-oxo-1,6-dihydropyrimidin-2-yl)-3-methyl-1H-pyrazol-5-yl)-2-(methylthio)benzamide], for which the CC50 at 72 h in the series “Cytotoxicity, alamarBlue” came to 2200 nM. Moreover, the “activity against Plasmodium falciparum (in words)” value in series [1] is recorded as “nanomolar-range cytocidal potency; also recorded: broad activity; also recorded: nanomolar concentrations”. For the same molecule, in series [2], the “competition with SW223022 probe (fluorescent tubulin band)” value is listed as “almost completely absent”. Besides, in series [3], the “percentage of L. amazonensis undergoing cell division” value was “significant two-fold increase”. Also, the EC50 in series [4] was found to be 510 nM.

Source of the values: patent US20240139190A1, “NOVEL ANTIPARASITIC COMPOUNDS AND METHODS” (The Board of Regents of The University of Texas System, priority 2019, published 2024).
